Assay results: patent US20240301319A1, “PERFUMING COMPOSITIONS” (FIRMNICH SA, priority 2017, published 2024)

Key:
[1] = Volatility of perfuming compounds (Tables 4 to 10), with top/middle/bottom note type; format: physicochemical
Protocol: In some aspects, the first perfume accord comprises perfuming compounds having a volatility ranging from 70,000 to 100 μg/l in air. In some aspects, perfuming compounds having a volatility ranging from 70,000 to 100 μg/l in air are referred to as “top notes”.
In some aspects, the second perfume accord comprises perfuming compounds having a volatility ranging from 99 to 50 μg/l in air. In some aspects, perfuming compounds having a volatility ranging from 99 to 50 μg/l in air are referred to as “middle notes”.
In some aspects, the third perfume accord comprises perfuming compounds having a volatility ranging from 49 to 0.1 μg/l in air. In some aspects, perfuming compounds having a volatility ranging from 49 to 0.1 μg/l in air are referred to as “bottom notes”.
Tables 4 to 10 describe top, middle and bottom note perfuming compounds for watery, green, fruity, citrus, sweet, gourmand and woody notes respectively.

[2] = Odor threshold and odor value of perfuming compounds (Tables 4 to 10)
[3] = Table 10, perfuming compounds having a woody note, note type by volatility
[4] = note type (Top/Middle/Bottom) by volatility, perfuming compounds having a green note
[5] = perfuming compounds having a green note
[6] = Table 8, perfuming compounds having a sweet note
[7] = Table 8, perfuming compounds having a sweet note, note type by volatility
[8] = Table 9, perfuming compounds having a gourmand note, note type by volatility
[9] = Table 6, perfuming compounds having a fruity note
[10] = Table 6, perfuming compounds having a fruity note, note type by volatility
[11] = Table 7, citrus note, top, middle or bottom note
[12] = Table 7, citrus note, equals volatility divided by odor threshold

Type [1, 3]	Volatility ([1]; Table 10, woody note)	Type [1, 4]	Volatility (μg/l air) [1, 5]	SMILES	Odor Threshold ([2]; Table 10, woody note)	Odor Threshold (μg/l air) [2, 5]	Type [1, 10]	further results
Bottom	2.34 μg/l air	–	–	CCCC(O)CC[C@@H]1[C@@H](C)CCCC1(C)C (mixture of isomers)	5.92E−04 μg/l air	–	–	–
–	–	Bottom	11.75 μg/l air	CC1=C[C@H]2C[C@H](C(C)C)[C@@H]1[C@@H](C1OCCO1)C2 (racemic)	–	1.51E−01 μg/l air	–	–
Bottom	8.25 μg/l air	–	–	CC(=O)O[C@@H]1C(C)(C)CCC[C@]12CC=C(C)C[C@H]2C (racemic)	3.79E−03 μg/l air	–	–	–
–	–	–	–	C/C=C/C(=O)[C@@H]1[C@@H](C)C=CCC1(C)C (racemic)	–	–	–	Volatility [1, 6]: 143.53 μg/l air; Type [1, 7]: Top; Volatility ([1]; Table 9, gourmand note): 143.53 μg/l air; Type [1, 8]: Top; Odor Threshold [2, 6]: 1.70E−05 μg/l air; Odor Value [2, 6]: 8.44E+06; Odor Threshold ([2]; Table 9, gourmand note): 1.70E−05 μg/l air
Bottom	14.41 μg/l air	–	–	CC(=O)O[C@@H]1CC[C@@H]2C(C)(C)CCC[C@@]2(C)C1 (racemic)	4.19E−04 μg/l air	–	–	–
Middle	84.04 μg/l air	–	–	CC1CC[C@@]2(O1)C(C)(C)CCC[C@@]2(C)O (mixture of isomers)	5.15E−04 μg/l air	–	–	–
Top	205.05 μg/l air	–	–	CCC(O)COC1CCCCC1C(C)(C)C (racemic)	3.53E−02 μg/l air	–	–	–
Bottom	3.42 μg/l air	–	–	CCCC(O)CCC1C(C)CCC(C)C1(C)C (racemic)	4.05E−04 μg/l air	–	–	–
Top	135.00 μg/l air	–	–	C=C1C2CCC(C)(OCC)C1CCC2(C)C (racemic)	1.37E−01 μg/l air	–	–	–
Bottom	3.69 μg/l air	–	–	CCC(=CCC1CC=C(C)C1(C)C)CO (racemic)	7.80E−05 μg/l air	–	–	–
–	–	Top	23116.66 μg/l air	C=CC1(C)CCCC(C)(C)O1 (racemic)	–	1.64E−01 μg/l air	–	–
–	–	Top	263.73 μg/l air	CC1CC(C)(c2ccccc2)CO1 (racemic)	–	5.04E−04 μg/l air	TOP (perfuming compounds having a volatility ranging from 70,000 to 100 μg/l in air are referred to as “top notes”)	Volatility [1, 9]: 263.73 μg/l air
–	–	–	–	C=CC(C)CC(=O)CC(C)C (racemic)	–	–	TOP (perfuming compounds having a volatility ranging from 70,000 to 100 μg/l in air are referred to as “top notes”)	Volatility [1, 9]: 4203.89 μg/l air; Volatility (μg/l air) ([1]; Table 7, citrus note): 4203.89 μg/l air; Type [1, 11]: Top; Odor Threshold (μg/l air) ([2]; Table 7, citrus note): 2.78E−01 μg/l air; Odor Value [2, 12]: 1.51E+04
Bottom	5.22 μg/l air	–	–	CC1=CCC(CCC(C)C(C)O)C1(C)C (racemic)	1.52E−03 μg/l air	–	–	–
–	–	Bottom	36.76 μg/l air	CC1=CCC2C(C1)C1CC2C2(C1)OC2C (racemic)	–	9.93E−04 μg/l air	Bottom	Volatility [1, 9]: 36.76 μg/l air; Odor Threshold [2, 9]: 9.93E−04 μg/l air; Odor Value [2, 9]: 3.70E+04
Bottom	11.83 μg/l air	–	–	CC1CCC2C(C)(C)C3CC12CCC3(C)O (racemic)	3.38E−02 μg/l air	–	–	–
–	–	–	–	CC(C)CCCC(C)CCO (racemic)	–	–	–	Volatility (μg/l air) ([1]; Table 7, citrus note): 76.57 μg/l air; Type [1, 11]: Middle; Odor Threshold (μg/l air) ([2]; Table 7, citrus note): 4.59E−02 μg/l air; Odor Value [2, 12]: 1.67E+03
–	–	Top	421.15 μg/l air	CCC(C)(O)CCCC(C)C (racemic)	–	3.45E−03 μg/l air	–	–

Type [1, 3]	Volatility ([1]; Table 10, woody note)	Type [1, 4]	Volatility (μg/l air) [1, 5]	SMILES	Odor Threshold ([2]; Table 10, woody note)	Odor Threshold (μg/l air) [2, 5]	Type [1, 10]	further results
–	–	–	–	C=C(C)CC(C)OC(=O)C(C)C (racemic)	–	–	TOP (perfuming compounds having a volatility ranging from 70,000 to 100 μg/l in air are referred to as “top notes”)	Volatility [1, 9]: 9902.98 μg/l air; Volatility [1, 6]: 9902.98 μg/l air; Type [1, 7]: Top; Volatility ([1]; Table 9, gourmand note): 9902.98 μg/l air; Type [1, 8]: Top; Odor Threshold [2, 6]: 2.26E−01 μg/l air; Odor Value [2, 6]: 4.39E+04; Odor Threshold ([2]; Table 9, gourmand note): 2.26E−01 μg/l air
–	–	–	–	CC1COCc2cc3c(cc21)C(C)(C)C(C)C3(C)C (racemic)	–	–	Bottom	Volatility [1, 9]: 1.59 μg/l air; Odor Threshold [2, 9]: 2.62E−04 μg/l air; Odor Value [2, 9]: 6.08E+03
–	–	–	–	CC1OCCC12NCCS2 (racemic)	–	–	–	Volatility [1, 6]: 52.47 μg/l air; Type [1, 7]: Middle; Odor Threshold [2, 6]: 2.53E−06 μg/l air; Odor Value [2, 6]: 2.07E+07
Bottom	35.54 μg/l air	–	–	COC(C)(C)CCCC(C)C(C)O (racemic)	2.66E−02 μg/l air	–	–	–
–	–	Top	2010.91 μg/l air	COC(=O)C1C(C)=CCCC1(C)C (racemic)	–	1.06E−02 μg/l air	–	–
–	–	Top	330.48 μg/l air	CC1CCCC2(C)CCCCC12O (racemic)	–	5.32E−06 μg/l air	–	–
–	–	Bottom	48.90 μg/l air	CC1=C[C@H](C)[C@H]2[C@H](CCC(C)(C)[C@H]2O)C1 (racemic)	–	8.15E−04 μg/l air	Bottom	Volatility [1, 9]: 48.90 μg/l air; Odor Threshold [2, 9]: 8.15E−04 μg/l air; Odor Value [2, 9]: 6.00E+04
Top	110.53 μg/l air	Top	110.53 μg/l air	C/C=C/C(=O)C1C(C)=CCCC1(C)C (racemic)	1.04E−04 μg/l air	1.04E−04 μg/l air	TOP (perfuming compounds having a volatility ranging from 70,000 to 100 μg/l in air are referred to as “top notes”)	Volatility [1, 6]: 110.53 μg/l air; Type [1, 7]: Top; Odor Threshold [2, 9]: 1.04E−04 μg/l air; Odor Threshold [2, 6]: 1.04E−04 μg/l air; Odor Value [2, 6]: 1.06E+06
Top	659.22 μg/l air	–	–	CC(=O)/C(C)=C(/C)C(C)C(C)(C)C (racemic)	7.24E−02 μg/l air	–	–	–
–	–	–	–	CC(C)=CCCC(C)CCOCC=O (racemic)	–	–	–	Volatility (μg/l air) ([1]; Table 7, citrus note): 4.70 μg/l air; Type [1, 11]: Bottom; Odor Threshold (μg/l air) ([2]; Table 7, citrus note): 8.95E−04 μg/l air; Odor Value [2, 12]: 5.26E+03
–	–	–	–	C=C1CCCC(C)(C)C1C(=O)/C=C/C (racemic)	–	–	TOP (perfuming compounds having a volatility ranging from 70,000 to 100 μg/l in air are referred to as “top notes”)	Volatility [1, 9]: 152.99 μg/l air; Volatility [1, 6]: 152.99 μg/l air; Type [1, 7]: Top; Volatility ([1]; Table 9, gourmand note): 152.99 μg/l air; Type [1, 8]: Top; Odor Threshold [2, 6]: 3.73E−03 μg/l air; Odor Value [2, 6]: 4.10E+04; Odor Threshold ([2]; Table 9, gourmand note): 3.73E−03 μg/l air
Top	106.28 μg/l air	–	–	CC(=O)/C(C)=C/C1C(C)=CCCC1(C)C (racemic)	5.03E−05 μg/l air	–	Bottom	Volatility [1, 9]: 36.33 μg/l air; Odor Threshold [2, 9]: 1.92E−04 μg/l air; Odor Value [2, 9]: 1.89E+05
Bottom	20.50 μg/l air	–	–	CC(=O)/C=C/C1C(C)CCC(C)C1(C)C (racemic)	5.14E−04 μg/l air	–	–	–
–	–	Top	295.22 μg/l air	C=C(C)CC(C(C)=O)C(=O)OCC (racemic)	–	3.64E−03 μg/l air	TOP (perfuming compounds having a volatility ranging from 70,000 to 100 μg/l in air are referred to as “top notes”)	Volatility [1, 9]: 295.22 μg/l air
–	–	Middle	50.65 μg/l air	CC(=O)OC(C)CC(C)(C)c1ccccc1 (racemic) [(+−)-1,3-DIMETHYL-3-PHENYLBUTYL ACETATE]	–	1.06E−02 μg/l air	Middle	Volatility [1, 9]: 50.65 μg/l air; Odor Threshold [2, 9]: 1.06E−02 μg/l air; Odor Value [2, 9]: 4.77E+03
–	–	Top	2534.77 μg/l air	CCCC(S)CCOC (racemic) [(+−)-1-METHOXY-3-HEXANETHIOL]	–	1.92E−07 μg/l air	–	–
–	–	–	–	CC(=O)OC(C)c1ccccc1 (racemic) [(+−)-1-PHENYLETHYL ACETATE]	–	–	TOP (perfuming compounds having a volatility ranging from 70,000 to 100 μg/l in air are referred to as “top notes”)	Volatility [1, 9]: 387.96 μg/l air; Volatility (μg/l air) ([1]; Table 7, citrus note): 387.96 μg/l air; Type [1, 11]: Top; Odor Threshold (μg/l air) ([2]; Table 7, citrus note): 4.43E−02 μg/l air; Odor Value [2, 12]: 8.75E+03

SMILES	Type [1, 3]	Volatility ([1]; Table 10, woody note)	Type [1, 4]	Volatility (μg/l air) [1, 5]	Odor Threshold ([2]; Table 10, woody note)	Odor Threshold (μg/l air) [2, 5]	Type [1, 10]	further results
CC(=O)/C=C/C1C(C)=CCCC1(C)C (racemic)	–	–	Middle	68.11 μg/l air	–	5.30E−04 μg/l air	–	–
C=CC(C)(CCC=C(C)C)OC(C)=O (racemic) [(+−)-1,5-DIMETHYL-1-VINYL-4-HEXENYL ACETATE]	–	–	Top	339.21 μg/l air	–	7.40E−02 μg/l air	TOP (perfuming compounds having a volatility ranging from 70,000 to 100 μg/l in air are referred to as “top notes”)	Type [1, 11]: Top; Odor Threshold (μg/l air) ([2]; Table 7, citrus note): 7.40E−02 μg/l air
